Source: ChEMBL document CHEMBL1629655, “Affinity of Tomopenem (CS-023) for penicillin-binding proteins in Staphylococcus aureus, Escherichia coli, and Pseudomonas aeruginosa” (Antimicrob Agents Chemother, 2009)
Converted amounts (≈) assume the structure as drawn.

Key:
Escherichia coli [1] = assay: Ratio of MIC for Escherichia coli ERR2a selected to MIC for Escherichia coli NIHJ; assay type: functional
[2] = Displacement of [14C]benzylpenicillin from PBP2 in Escherichia coli NIHJ
[3] = Displacement of [14C]benzylpenicillin from PBP6 Escherichia coli NIHJ
Escherichia coli [4] = assay: Ratio of MIC for Escherichia coli ERR2b to MIC for Escherichia coli NIHJ; assay type: functional
Escherichia coli [5] = assay: Ratio of MIC for Escherichia coli EIR4b to MIC for Escherichia coli NIHJ; assay type: functional
[6] = Displacement of [14C]benzylpenicillin from PBP 6 in Pseudomonas aeruginosa ATCC 15692
[7] = Displacement of [14C]benzylpenicillin from PBP4 in Escherichia coli NIHJ
[8] = Displacement of [14C]benzylpenicillin from PBP3 in Escherichia coli NIHJ
Staphylococcus aureus [9] = assay: Ratio of MIC for Staphylococcus aureus SIR2a selected at 2 times MIC of imipenem to MIC for Staphylococcus aureus ATCC 6538P; assay type: functional
Pseudomonas aeruginosa [10] = assay: Ratio of MIC for Pseudomonas aeruginosa PMR2a to MIC for Pseudomonas aeruginosa ATCC 15692; assay type: functional
[11] = Displacement of [14C]benzylpenicillin from PBP1 in Staphylococcus aureus ATCC 6538P
Escherichia coli [12] = assay: Ratio of MIC for Escherichia coli EIR2a to MIC for Escherichia coli NIHJ; assay type: functional
Staphylococcus aureus [13] = assay: Ratio of MIC for Staphylococcus aureus SRR2a to MIC for Staphylococcus aureus ATCC 6538P; assay type: functional
Escherichia coli [14] = assay: Ratio of MIC for Escherichia coli EIR8a to MIC for Escherichia coli NIHJ; assay type: functional
[15] = Displacement of [14C]benzylpenicillin from PBP1A in Pseudomonas aeruginosa ATCC 15692
Escherichia coli [16] = assay: Ratio of MIC for Escherichia coli EMR2a to MIC for Escherichia coli NIHJ; assay type: functional
Pseudomonas aeruginosa [17] = assay: Antibacterial activity against Pseudomonas aeruginosa PRR4a selected at 4 times MIC of tomopenem by microdilution method; assay type: functional
Escherichia coli [18] = assay: Antibacterial activity against Escherichia coli EMR2a selected at 2 times MIC of meropenem by microdilution method; assay type: functional
[19] = Displacement of [14C]benzylpenicillin from PBP1B in Pseudomonas aeruginosa ATCC 15692
Staphylococcus aureus [20] = assay: Ratio of MIC for Staphylococcus aureus SMR4a to MIC for Staphylococcus aureus ATCC 6538P; assay type: functional
[21] = Displacement of [14C]benzylpenicillin from PBP1B in Escherichia coli NIHJ
[22] = Displacement of [14C]benzylpenicillin from PBP2 Staphylococcus aureus ATCC 6538P
Pseudomonas aeruginosa [23] = assay: Ratio of MIC for Pseudomonas aeruginosa PRR4a to MIC for Pseudomonas aeruginosa ATCC 15692; assay type: functional
Staphylococcus aureus [24] = assay: Antibacterial activity against Staphylococcus aureus SIR2a selected at 2 times MIC of imipenem by microdilution method; assay type: functional
Escherichia coli [25] = assay: Antibacterial activity against Escherichia coli EIR8a selected at 8 times MIC of imipenem by microdilution method; assay type: functional
[26] = Displacement of [14C]benzylpenicillin from PBP 5 in Pseudomonas aeruginosa ATCC 15692
[27] = Displacement of [14C]benzylpenicillin from PBP2 in Pseudomonas aeruginosa ATCC 15692
[28] = Displacement of [14C]benzylpenicillin from PBP4 in Staphylococcus aureus ATCC 6538P
Escherichia coli [29] = assay: Antibacterial activity against Escherichia coli EIR4b selected at 4 times MIC of imipenem by microdilution method; assay type: functional
Escherichia coli [30] = assay: Antibacterial activity against Escherichia coli ERR2a selected at 2 times MIC of tomopenem by microdilution method; assay type: functional
Staphylococcus aureus [31] = assay: Antibacterial activity against Staphylococcus aureus SMR2a selected at 2 times MIC of meropenem by microdilution method; assay type: functional
Escherichia coli [32] = assay: Antibacterial activity against Escherichia coli EIR2b selected at 2 times MIC of imipenem by microdilution method; assay type: functional
Escherichia coli [33] = assay: Antibacterial activity against Escherichia coli ERR8a selected at 8 times MIC of tomopenem by microdilution method; assay type: functional
Pseudomonas aeruginosa [34] = assay: Ratio of MIC for Pseudomonas aeruginosa PIR2a to MIC for Pseudomonas aeruginosa ATCC 15692; assay type: functional
Staphylococcus aureus [35] = assay: Antibacterial activity against Staphylococcus aureus SMR4a […] MIC of meropenem by microdilution method; assay type: functional
Escherichia coli [36] = assay: Antibacterial activity against Escherichia coli NIHJ by microdilution method; assay type: functional, organism-based
Escherichia coli [37] = assay: Antibacterial activity against Escherichia coli EIR2a selected at 2 times MIC of imipenem by microdilution method; assay type: functional
Pseudomonas aeruginosa [38] = assay: Antibacterial activity against Pseudomonas aeruginosa PMR2a selected at 2 times MIC of meropenem by microdilution method; assay type: functional
Escherichia coli [39] = assay: Ratio of MIC for Escherichia coli ERR4a to MIC for Escherichia coli NIHJ; assay type: functional
Escherichia coli [40] = assay: Antibacterial activity against Escherichia coli ERR2b selected at 2 times MIC of tomopenem by microdilution method; assay type: functional
Escherichia coli [41] = assay: Ratio of MIC for Escherichia coli EIR2b to MIC for Escherichia coli NIHJ; assay type: functional
Escherichia coli [42] = assay: Ratio of MIC for Escherichia coli ERR8a to MIC for Escherichia coli NIHJ; assay type: functional
Staphylococcus aureus [43] = assay: Ratio of MIC for Staphylococcus aureus SMR2a to MIC for Staphylococcus aureus ATCC 6538P; assay type: functional
Escherichia coli [44] = assay: Ratio of MIC for Escherichia coli EIR4a to MIC for Escherichia coli NIHJ; assay type: functional
[45] = Displacement of [14C]benzylpenicillin from PBP4 in Pseudomonas aeruginosa ATCC 15692
Staphylococcus aureus [46] = assay: Antibacterial activity against Staphylococcus aureus SRR2a selected at 2 times MIC of tomopenem by microdilution method; assay type: functional
Escherichia coli [47] = assay: Antibacterial activity against Escherichia coli EIR4a selected at 4 times MIC of imipenem by microdilution method; assay type: functional
[48] = Displacement of [14C]benzylpenicillin from PBP5 in Escherichia coli NIHJ
[49] = Displacement of [14C]benzylpenicillin from PBP1A in Escherichia coli NIHJ
Escherichia coli [50] = assay: Antibacterial activity against Escherichia coli ERR4a selected at 4 times MIC of tomopenem by microdilution method; assay type: functional
Pseudomonas aeruginosa [51] = assay: Antibacterial activity against Pseudomonas aeruginosa PIR2a selected at 2 times MIC of imipenem by microdilution method; assay type: functional
Staphylococcus aureus [52] = assay: Antibacterial activity against Staphylococcus aureus ATCC 6538P by microdilution method; assay type: functional, organism-based
[53] = Displacement of [14C]benzylpenicillin from PBP3 in Staphylococcus aureus ATCC 6538P
[54] = Displacement of [14C]benzylpenicillin from PBP3 in Pseudomonas aeruginosa ATCC 15692
Pseudomonas aeruginosa [55] = assay: Antibacterial activity against Pseudomonas aeruginosa ATCC 15692 by microdilution method; assay type: functional, organism-based

## C[C@@H](O)[C@H]1C(=O)N2C(C(=O)O)=C(SCCNC=N)C[C@H]12 [IMIPENEM ANHYDROUS]
Escherichia coli [1]
  Ratio MIC: 4
[2]
  IC50: 0.045 µg/mL (≈ 0.15 µM)
[3]
  IC50: 1 µg/mL (≈ 3.34 µM)
Escherichia coli [4]
  Ratio MIC: 4
Escherichia coli [5]
  Ratio MIC: 4
[6]
  IC50: 0.19 µg/mL (≈ 0.635 µM)
[7]
  IC50: 0.44 µg/mL (≈ 1.47 µM)
[8]
  IC50: 19 µg/mL (≈ 63.5 µM)
Staphylococcus aureus [9]
  Ratio MIC: 4
Pseudomonas aeruginosa [10]
  Ratio MIC: 16
[11]
  IC50: 0.024 µg/mL (≈ 0.0802 µM)
Escherichia coli [12]
  Ratio MIC: 4
Staphylococcus aureus [13]
  Ratio MIC: 4
Escherichia coli [14]
  Ratio MIC: 2
[15]
  IC50: 0.057 µg/mL (≈ 0.19 µM)
Escherichia coli [16]
  Ratio MIC: 4
Pseudomonas aeruginosa [17]
  MIC: 8 µg/mL
Escherichia coli [18]
  MIC: 1 µg/mL
[19]
  IC50: 0.078 µg/mL (≈ 0.261 µM)
Staphylococcus aureus [20]
  ratio: 4
[21]
  IC50: 1.1 µg/mL (≈ 3.67 µM)
[22]
  IC50: 0.047 µg/mL (≈ 0.157 µM)
Pseudomonas aeruginosa [23]
  Ratio MIC: 8
Staphylococcus aureus [24]
  MIC: 0.03 µg/mL
Escherichia coli [25]
  MIC: 0.5 µg/mL
[26]
  IC50: 0.19 µg/mL (≈ 0.635 µM)
[27]
  IC50: 0.066 µg/mL (≈ 0.22 µM)
[28]
  IC50: 0.0078 µg/mL (≈ 0.0261 µM)
Escherichia coli [29]
  MIC: 1 µg/mL
Escherichia coli [30]
  MIC: 1 µg/mL
Staphylococcus aureus [31]
  MIC: 0.03 µg/mL
Escherichia coli [32]
  MIC: 0.5 µg/mL
Escherichia coli [33]
  MIC: 0.5 µg/mL
Pseudomonas aeruginosa [34]
  Ratio MIC: 16
Staphylococcus aureus [35]
  MIC: 0.03 µg/mL
Escherichia coli [36]
  MBC: 0.25 µg/mL (≈ 0.835 µM)
  MIC: 0.25 µg/mL (≈ 0.835 µM)
Escherichia coli [37]
  MIC: 1 µg/mL
Pseudomonas aeruginosa [38]
  MIC: 16 µg/mL
Escherichia coli [39]
  Ratio MIC: 4
Escherichia coli [40]
  MIC: 1 µg/mL
Escherichia coli [41]
  Ratio MIC: 2
Escherichia coli [42]
  Ratio MIC: 2
Staphylococcus aureus [43]
  Ratio MIC: 4
Escherichia coli [44]
  Ratio MIC: 4
[45]
  IC50: 0.0032 µg/mL (≈ 0.0107 µM)
Staphylococcus aureus [46]
  MIC: 0.03 µg/mL
Escherichia coli [47]
  MIC: 1 µg/mL
[48]
  IC50: 0.34 µg/mL (≈ 1.14 µM)
[49]
  IC50: 0.22 µg/mL (≈ 0.735 µM)
Escherichia coli [50]
  MIC: 1 µg/mL
Pseudomonas aeruginosa [51]
  MIC: 16 µg/mL
Staphylococcus aureus [52]
  IC50: 0.008 µg/mL (≈ 0.0267 µM)
  MBC: 0.008 µg/mL (≈ 0.0267 µM)
  MIC: 0.008 µg/mL (≈ 0.0267 µM)
[53]
  IC50: 0.049 µg/mL (≈ 0.164 µM)
[54]
  IC50: 0.089 µg/mL (≈ 0.297 µM)
Pseudomonas aeruginosa [55]
  MBC: 2 µg/mL (≈ 6.68 µM)
  MIC: 1 µg/mL (≈ 3.34 µM)

## C[C@@H](O)[C@H]1C(=O)N2C(C(=O)O)=C(S[C@@H]3CN[C@H](C(=O)N(C)C)C3)[C@H](C)[C@H]12 [MEROPENEM]
Escherichia coli [1]
  Ratio MIC: 1
[2]
  IC50: 0.016 µg/mL (≈ 0.0417 µM)
[3]
  IC50: 15 µg/mL (≈ 39.1 µM)
Escherichia coli [4]
  Ratio MIC: 2
Escherichia coli [5]
  Ratio MIC: 4
[6]
  IC50: 4.5 µg/mL (≈ 11.7 µM)
[7]
  IC50: 0.047 µg/mL (≈ 0.123 µM)
[8]
  IC50: 0.39 µg/mL (≈ 1.02 µM)
Staphylococcus aureus [9]
  Ratio MIC: 4
Pseudomonas aeruginosa [10]
  Ratio MIC: 16
[11]
  IC50: 0.044 µg/mL (≈ 0.115 µM)
Escherichia coli [12]
  Ratio MIC: 1
Staphylococcus aureus [13]
  Ratio MIC: 8
Escherichia coli [14]
  Ratio MIC: 1
[15]
  IC50: 0.12 µg/mL (≈ 0.313 µM)
Escherichia coli [16]
  Ratio MIC: 2
Pseudomonas aeruginosa [17]
  MIC: 2 µg/mL
Escherichia coli [18]
  MIC: 0.06 µg/mL
[19]
  IC50: 0.11 µg/mL (≈ 0.287 µM)
Staphylococcus aureus [20]
  ratio: 8
[21]
  IC50: 0.77 µg/mL (≈ 2.01 µM)
[22]
  IC50: 0.26 µg/mL (≈ 0.678 µM)
Pseudomonas aeruginosa [23]
  Ratio MIC: 4
Staphylococcus aureus [24]
  MIC: 0.12 µg/mL
Escherichia coli [25]
  MIC: 0.03 µg/mL
[26]
  IC50: 4.5 µg/mL (≈ 11.7 µM)
[27]
  IC50: 0.018 µg/mL (≈ 0.0469 µM)
[28]
  IC50: 0.071 µg/mL (≈ 0.185 µM)
Escherichia coli [29]
  MIC: 0.12 µg/mL
Escherichia coli [30]
  MIC: 0.03 µg/mL
Staphylococcus aureus [31]
  MIC: 0.25 µg/mL
Escherichia coli [32]
  MIC: 0.03 µg/mL
Escherichia coli [33]
  MIC: 0.06 µg/mL
Pseudomonas aeruginosa [34]
  Ratio MIC: 8
Staphylococcus aureus [35]
  MIC: 0.25 µg/mL
Escherichia coli [36]
  MBC: 0.03 µg/mL (≈ 0.0782 µM)
  MIC: 0.03 µg/mL (≈ 0.0782 µM)
Escherichia coli [37]
  MIC: 0.03 µg/mL
Pseudomonas aeruginosa [38]
  MIC: 8 µg/mL
Escherichia coli [39]
  Ratio MIC: 2
Escherichia coli [40]
  MIC: 0.06 µg/mL
Escherichia coli [41]
  Ratio MIC: 1
Escherichia coli [42]
  Ratio MIC: 2
Staphylococcus aureus [43]
  Ratio MIC: 8
Escherichia coli [44]
  Ratio MIC: 1
[45]
  IC50: 0.0033 µg/mL (≈ 0.00861 µM)
Staphylococcus aureus [46]
  MIC: 0.25 µg/mL
Escherichia coli [47]
  MIC: 0.03 µg/mL
[48]
  IC50: 1.2 µg/mL (≈ 3.13 µM)
[49]
  IC50: 0.82 µg/mL (≈ 2.14 µM)
Escherichia coli [50]
  MIC: 0.06 µg/mL
Pseudomonas aeruginosa [51]
  MIC: 4 µg/mL
Staphylococcus aureus [52]
  IC50: 0.06 µg/mL (≈ 0.156 µM)
  MBC: 0.12 µg/mL (≈ 0.313 µM)
  MIC: 0.06 µg/mL (≈ 0.156 µM)
[53]
  IC50: > 130 µg/mL
[54]
  IC50: 0.013 µg/mL (≈ 0.0339 µM)
Pseudomonas aeruginosa [55]
  MBC: 1 µg/mL (≈ 2.61 µM)
  MIC: 1 µg/mL (≈ 2.61 µM)
